Data on 54 compounds can be found in PubChem BioAssay AID2387 (Broad Institute, 2010).

pEC50: −log10 of the molar value. Activity calls are given as the source filed them.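 Rule for the calls: active = fitted EC50 no more than tenfold above the highest tested concentration; inconclusive = flat fit with 30 to 70% signal loss, or poor fit; inactive = the rest.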 A value given as a limit tells only on which side of the number the result lay.

This experiment concerns Candida albicans CaCi-2 growth (no fluconazole), Alamar Blue. As to the kind of experiment: C. albicans growth inhibition without fluconazole, dose response, counter-screen for fluconazole resistance reversal project, CaCi-2 strain, Alamar Blue fluorescence (AID 2387). As to conditions: C. albicans CaCi-2 (fluconazole-resistant clinical isolate) growth without fluconazole, 48 h. In general terms: Counterscreens check selectivity or assay interference.
In general, EC50 refers to the concentration at which the effect is half-maximal. For `O=C(Nc1nnc(-c2ccco2)o1)c1ccc(Cl)cc1`, the EC50 is > 15 µM (inactive).
For orientation: pEC50 means the EC50 on a negative log10 scale, so that one unit is a factor of ten. As to `COc1ccc(-c2nnc(NC(=O)c3ccc(S(=O)(=O)N4CCCc5ccccc54)cc3)o2)cc1`, the pEC50 is 4.88.
In the case of `CCn1c(O)c(N=NC(=O)c2cccs2)c2ccccc21`, the EC50 is > 15 µM (inactive).
Consider `O=C1NC(=O)/C(=C\c2ccc(Br)o2)S1`, for which the EC50 was > 15 µM (inactive).
As for `COc1cccc(/C=N/NC(=O)C(=O)Nc2ccccc2OC(F)(F)C(F)F)c1O`, the EC50 was > 16 µM (inactive).
The same measure, in the same setting: under `Cc1ccnc(Sc2ccc([N+](=O)[O-])cc2[N+](=O)[O-])n1` stands > 15 µM (inactive).
In the case of `O=C(Oc1c(Cl)cc(Cl)c2cccnc12)c1cccs1`, the pEC50 is 5.85.
Same read-out and setting: under `O=c1ccc(N=Nc2ccccc2)ccc1O` stands 5.41.
On to `C=CCn1c(N)nc2ccccc21`, for which the EC50 is > 16 µM (inactive).
The same measure, in the same setting: under `CC(C)N1CCc2c(sc(NC(=O)c3nc4ccccc4s3)c2C(N)=O)C1` stands > 15 µM (inactive); under `CN(C)c1cc(N/N=C/c2ccc(Cl)cc2)nc(N(C)C)n1`, > 16 µM (inactive); under `c1ccc(CC2CCN(c3ncnc4sccc34)CC2)cc1`, > 16 µM (inactive).
As for `Cc1nc2ccccc2cc1OCc1ccc(F)cc1`, the EC50 was > 16 µM (inactive).
Still for that read-out and setting: the same measure for `c1ccc2c(c1)CCN(c1ncnc3c1[nH]c1ccccc13)C2`: > 15 µM (inactive).
Still for that read-out and setting: under `CCC(=O)NC(c1cccs1)c1cc([N+](=O)[O-])c2cccnc2c1O` (centres undefined) stands > 15 µM (inactive).
Take `Cc1cc2ccccn2c1C(C[N+](=O)[O-])c1c(F)cccc1Cl` (centres undefined): the negative logarithm of the EC50 (pEC50) was 5.55.
Regarding `CCN(CC)c1ccc(/C=N/NC(=O)c2cccc(S(=O)(=O)N3CCOCC3)c2)c(O)c1`, the EC50 is > 16 µM (inactive).
Same read-out and setting: the same measure for `COc1ccc(-n2nc(C(=O)NCC(=O)N3CCN(c4ccc(F)cc4)CC3)c3ccccc3c2=O)c(OC)c1`: > 15 µM (inactive); for `Cc1c(O)c2c3c(cccc3c1O)C(=O)N(c1ccccc1)C2=O`: > 15 µM (inactive); for `CCOc1ccc(-c2ccc(NS(=O)(=O)c3ccc([N+](=O)[O-])cc3)cc2)nn1`: > 15 µM (inactive).
Still for that read-out and setting: the same measure for `Nc1ccc(C(=O)N/N=C\c2ccc(OC(=O)c3ccccc3Cl)cc2)cc1`: > 16 µM (inactive); for `COc1ccc(-c2nnc(NC(=O)c3cc(Cl)ccc3Cl)o2)cc1`: > 15 µM (inactive).
Still for that read-out and setting: the same measure for `O=C(NCc1ccc(F)cc1)C(c1ccccc1)N(CC1CCCO1)C(=O)Cn1nnc2ccccc21` (centres undefined): > 15 µM (inactive).
Consider `COc1cccc(N=Nc2ccc3cccnc3c2O)c1`, for which the pEC50 is 5.98.
Take `COc1cccc(N=Nc2ccc(O)c3ncccc23)c1`: the pEC50 is 5.90.
Regarding `CC(C)(C)c1ccc(CSc2cnn(C(C)(C)C)c(=O)c2Cl)cc1`, the EC50 was > 16 µM (inactive).
Same read-out and setting: under `O=C(NCc1ccco1)c1sc(=S)n2c1[nH]c(=O)c1ccccc12` stands > 16 µM (inactive); under `O=C(NC(Nc1nc2ccc([N+](=O)[O-])cc2s1)(C(F)(F)F)C(F)(F)F)c1ccccc1Cl`, > 16 µM (inactive); under `CCCC(=O)NC(c1ccco1)c1cc([N+](=O)[O-])c2cccnc2c1O` (centres undefined), > 15 µM (inactive).
In the case of `CCC(=O)NC(c1ccc(C)cc1)c1cc([N+](=O)[O-])c2cccnc2c1O` (centres undefined), the EC50 is > 15 µM (inactive).
Still for that read-out and setting: under `CCNc1nc(NC(C)C)nc(NC(C)(C)C)n1` stands > 16 µM (inactive); under `O=C(c1ccc(Cn2c(=S)[nH]c3ccccc3c2=O)cc1)N1CCN(c2ccccn2)CC1`, > 15 µM (inactive).
Consider `Cc1cc(C(C#N)c2ccccc2F)n2ncnc2n1` (centres undefined), for which the EC50 is > 16 µM (inactive).
Take `O=C(Nc1nnc(-c2ccc3c(c2)CCCC3)o1)c1ccccc1`: the negative-log EC50 (pEC50) was 5.01.
Regarding `CCN(CC)S(=O)(=O)c1ccc(N/N=C/c2ccc(O)cc2O)nc1`, the EC50 is > 16 µM (inactive).
Same read-out and setting: the same measure for `COc1ccc(/C=C/c2cc(-c3ccc(C)cc3)o[n+]2C)cc1`: > 16 µM (inactive).
`CCCC(=O)NC(c1ccc(C(C)C)cc1)c1ccc2cccnc2c1O` (centres undefined): the pEC50 was 4.96.
As for `CC(C)C(=O)NC(c1cccs1)c1cc([N+](=O)[O-])c2cccnc2c1O` (centres undefined), the pEC50 is 4.89.
As for `CCCCOc1cccc(C2C(C(=O)c3ccc(C)o3)=C(O)C(=O)N2Cc2ccco2)c1` (centres undefined), the EC50 was > 15 µM (inactive).
On to `CCCCC(=O)NC(c1ccco1)c1cc(Cl)c2cccnc2c1O` (centres undefined), for which the pEC50 is 4.98.
`Cc1cc(C)c(-c2cc(NC(=O)COC(=O)c3ccc(C#N)cc3)n(-c3ccccc3)n2)cc1C`: the EC50 was > 16 µM (inactive).
On the same count and under the same terms, the same measure for `COc1ccc2c(c1)/C(=C/c1cnc[nH]1)C(=O)N2`: > 16 µM (inactive); for `Cc1ccccc1/C=C1\SC(=S)N(/N=C/c2cc([N+](=O)[O-])ccc2O)C1=O`: > 16 µM (inactive).
`Cc1cc(C)n(-c2nc3ccccc3c(=O)n2OCC#N)n1`: the pEC50 is 4.95.
Consider `O=C(Nc1nnc(-c2ccncc2)o1)c1ccc2ccccc2c1`, for which the EC50 was > 15 µM (inactive).
For the compound `Cc1nnc(NC(=O)CSc2ncnc3c2cnn3-c2ccccc2C)s1`, the EC50 is > 15 µM (inactive).
Same read-out and setting: the same measure for `CC(=O)NC(c1cccs1)c1cc([N+](=O)[O-])c2cccnc2c1O` (centres undefined): > 15 µM (inactive); for `O=C(/C(=N/N=C/c1ccc(O)c(O)c1O)c1ccccc1)c1ccccc1`: > 15 µM (inactive).
Still for that read-out and setting: the same measure for `CCCCc1c(O)nc(SCC(=O)Nc2cccc3ccccc23)n(-c2ccccc2OC)c1=O`: > 16 µM (inactive).
Still for that read-out and setting: under `CC(=O)N(O)CCCCCNC(=O)CCC(=O)N(O)CCCCCNC(=O)CCC(=O)N(O)CCCCCN` stands > 15 µM (inactive).
`CCOC(=O)N1C(=O)C2(CCCCC2)N(c2ccccc2Cl)C1=S`: the pEC50 is 4.84.
For the compound `O=C(Cc1ccc(Cl)cc1)NNC(=S)NC(=O)c1cccs1`, the EC50 was > 16 µM (inactive).
Take `C(=C\c1ccccc1)/CN1CCN(c2ncnc3c2oc2ccccc23)CC1`: the EC50 is > 16 µM (inactive).
Regarding `C=CCOC(=O)c1sc(NC(=O)c2ccco2)nc1C`, the EC50 is > 15 µM (inactive).
